Measurements: USRE38761E1, “Styryl compounds which inhibit EGF receptor protein tyrosine kinase” (Yissum Research Development Company of the Hebrew …, priority 1987, dated 2005)
Read-outs that look alike come from different tables or passages of the source. Values belong to the compound of their own block, whether it stands above or below them.

How the values were obtained:
[1] = molecular target: T1, EGF receptor (Homo sapiens, UniProt P00533); assay: EGF-receptor kinase (PTK) activity inhibition on extracted EGF receptors, poly(GAT) substrate, Dixon analysis; assay type: biochemical; design: EGF receptors were prepared from A431 cells (obtained from the ATCC) and PTK activity of these receptors was assayed; endogenous in cells; host or cells: A431 cells (ATCC); details: EGF receptors from A431 cells; copoly Glu6Ala3Tyr1 substrate; analysis according to Dixon; read-out: Klnh, dissociation constant of the PTK-inhibitor complex
Method: The different KInh values were determined by the analysis according to Dixon.
EGF-receptor purification is based on the procedure of Yarden and Schlessinger. A431 cells are grown in 80 cm^2 bottles in confluency (2×10^7 cells per bottle). The cells are washed twice with PBS and harvested with PBS containing 1.0 mmol EDTA (1 hour at 37° C.), and centrifuged at 600 g for 10 minutes. The cells are solubilized in 1 ml per 2×10^7 cells of cold solubilization buffer (50 mmol Hepes buffer, pH 7.6, 1% Triton X-100, 150 mmol NaCl, 5 mmol EGTA, 1 mmol PMSF, 50 μg/ml aprotinin, 25 mmol benzamidine, 5 μg/ml leupeptin, and 10 μg/ml soybean trypsin inhibitor) for 20 minutes at 4° C. After centrifugation at 100000g for 30 minutes, the supernatant is loaded onto a WGA-agarose column (100 μl of packed resin per 2×10^7 cells) and shaken for 2 hours at 4° C. The unabsorbed material is removed and the resin washed twice with HTN buffer (50 mmol Hepes, pH 7.6, 0.1% Triton X-100, 150 mmol NaCl), twice with HTN buffer containing 1 M NaCl, and twice with HTNG buffer (50 mmol Hepes, pH 7.6, 0.1% Triton X-100, 150 mmol NaCl, and 10% glycerol). The EGF receptor is eluted batchwise with HTNG buffer containing 0.5 M N-acetyl-D-glucosamine (200 μl per […] cells). The eluted material is stored in aliquots at −70° C. and diluted before use with TMTNG buffer (50 mmol Tris-Mes buffer, pH 7.6, 0.1% Triton X-100, 150 mmol NaCl, 10% glycerol).
The concentration of EGF in the assay is 300 nM in a final volume of 40 μl. After 5, 10 or 20 minutes, aliquots of 25 μl are applied onto Whatman 3-mm paper cuttings, which are then soaked in cold 10% TCA containing 0.01 M sodium pyrophosphate. After being washed overnight at 4° C., the paper cuttings are dried and counted, measuring ^32P Cerenkov radiation. […] The EGF response for the poly(GAT) phosphorylation is graphed.

[2] = system: cells incubated with EGF or serum; assay: Inhibition of cell proliferation as measured by inhibition of DNA synthesis ([3H]thymidine incorporation); assay type: cell-based
Method: Cells were seeded at 1×10^5 cells per well in 24-well Costar dishes pre-coated with human fibronectin (by incubating for 30 minutes at room temperature with 10 μg/0.5 ml/well). The cells were grown to confluence for 2 days. The medium was changed to DMEM containing 0.5 calf serum for 36-48 hours and the cells were then incubated with EGF (Toyobo, New York, N.Y.) (20 ng/ml) or serum (10% calf serum) and different concentrations of the inhibitory compounds. […] TCA precipitable material was quantitated by scintillation counting (C). […]
Cells termed HER 14 and K721A (=DK) were prepared by transfecting NIH3T3 cells (clone 2.2) (From C. Fryling, NCI, NIH), which lack endogenous EGF-receptors, with cDNA constructs of wild-type EGF-receptor or mutant EGF-receptor lacking tyrosine kinase activity (in which Lys 721 at the ATP-binding site was replaced by an Ala residue, respectively). All cells were grown in DMEM with 10% calf serum (Hyclone, Logan, Utah).

[3] = molecular target: T1, EGF receptor; details: membranes of A431 cells; reported; cited from earlier work
[4] = [3H]thymidine incorporation halved, cells stimulated with EGF (20 ng/ml), read-out: IC50 - EGF
[5] = [3H]thymidine incorporation halved, cells stimulated with serum (10% calf serum), read-out: IC50 - FCS

T1 sequence (P00533 25-1210): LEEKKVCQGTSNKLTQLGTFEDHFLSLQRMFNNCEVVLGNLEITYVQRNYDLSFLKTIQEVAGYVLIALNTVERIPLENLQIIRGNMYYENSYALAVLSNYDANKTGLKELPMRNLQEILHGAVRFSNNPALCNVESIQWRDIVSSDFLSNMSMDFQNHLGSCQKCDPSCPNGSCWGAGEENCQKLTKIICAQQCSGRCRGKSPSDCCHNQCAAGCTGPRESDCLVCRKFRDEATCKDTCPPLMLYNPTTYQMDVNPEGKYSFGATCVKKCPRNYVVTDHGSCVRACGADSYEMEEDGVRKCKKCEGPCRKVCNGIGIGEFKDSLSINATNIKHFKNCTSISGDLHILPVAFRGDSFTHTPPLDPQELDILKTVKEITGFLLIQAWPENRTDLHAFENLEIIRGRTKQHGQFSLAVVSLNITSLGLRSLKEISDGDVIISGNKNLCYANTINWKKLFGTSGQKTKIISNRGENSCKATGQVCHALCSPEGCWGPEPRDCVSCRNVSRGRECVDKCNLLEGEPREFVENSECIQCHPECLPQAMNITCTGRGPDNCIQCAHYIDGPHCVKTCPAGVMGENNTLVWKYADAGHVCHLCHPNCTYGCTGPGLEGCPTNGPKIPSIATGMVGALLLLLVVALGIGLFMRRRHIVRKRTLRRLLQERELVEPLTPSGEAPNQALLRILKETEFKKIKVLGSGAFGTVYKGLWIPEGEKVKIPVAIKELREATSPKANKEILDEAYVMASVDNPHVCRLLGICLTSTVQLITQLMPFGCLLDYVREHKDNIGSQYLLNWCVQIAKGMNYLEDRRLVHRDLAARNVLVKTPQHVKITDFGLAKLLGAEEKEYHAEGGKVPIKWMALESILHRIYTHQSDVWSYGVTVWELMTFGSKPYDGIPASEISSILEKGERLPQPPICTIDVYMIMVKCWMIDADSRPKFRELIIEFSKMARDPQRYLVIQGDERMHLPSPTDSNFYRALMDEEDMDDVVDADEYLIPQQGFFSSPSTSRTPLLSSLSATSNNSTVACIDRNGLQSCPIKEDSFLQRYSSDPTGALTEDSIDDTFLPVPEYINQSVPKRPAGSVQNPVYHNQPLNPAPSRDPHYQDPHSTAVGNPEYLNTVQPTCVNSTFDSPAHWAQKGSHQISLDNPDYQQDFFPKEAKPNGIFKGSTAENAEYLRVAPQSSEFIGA

Structure (SMILES): COc1cc(C=C(C#N)C#N)cc(O)c1O [Example 2, 3-methoxy-4,5-dihydroxybenzylidene malononitrile]
- Ki [1]: 2.2 ± 0.3 µM

Structure (SMILES): CC(C)(C)c1cc(C=C(C#N)C#N)cc(C(C)(C)C)c1O [Example 3, 3,5-di-tert butyl-4-hydroxybenzylidene malononitrile]
- IC50 ([2]; read-out: IC50 - EGF): 0.1 µM
- IC50 ([2]; read-out: IC50 - FCS): 0.2 µM

Structure (SMILES): N#CC(C#N)=C(O)c1cc(O)c(O)c(O)c1 [Example 5, α-Hydroxy-3,4,5-trihydroxybenzylidene malononitrile]
- Ki [1]: 4.5 µM

- Ki [1]: 3.5 ± 0.6 µM
Structure (SMILES): N#CC(=Cc1ccc(O)c(O)c1)C(N)=O [Example 6, α-Cyano-3,4-dihydroxycinnamamide]

- Ki [1]: 23.6 µM
Structure (SMILES): N#CC(=Cc1ccc(O)c(O)c1)C(=O)O [Example 10, α-Cyano-3,4-dihydroxycinnamic acid]

Structure (SMILES): N#CC(C#N)=Cc1ccc(C=O)cc1 [Example 15, 4-Formylbenzylidene malononitrile]
- Ki [1]: 20 µM

Structure (SMILES): N#CC(=Cc1ccc(O)c(O)c1)C(=O)Nc1ccccc1 [Example 25, N-Phenyl-α-cyano-3,4-dihydroxycinnamamide]
- IC50 [2, 4]: 30 µM
- IC50 [2, 5]: 100 µM

Structure (SMILES): CC(C)(C)c1cc(C=C(C#N)C(N)=S)cc(C(C)(C)C)c1 [Example 26, α-Cyano-β-(3,5-di-tertbutylphenyl)propenethioamide]
- IC50 [2, 4]: 20 µM
- IC50 [2, 5]: 100 µM

Structure (SMILES): O=CN/C=C/c1cc(O)ccc1O [erbstatin]
- inhibition of EGF receptor autophosphorylation [3]: inhibits the autophosphorylation of the EGF receptor
